Usually IC50 stands for the point on the concentration scale where inhibition reaches its midpoint. Read a high IC50 as a need for much substance.

The source of these data is ChEMBL document CHEMBL1122767, “Synthesis, resolution, absolute stereochemistry, and enantioselectivity of 3',4'-dihydroxynomifensine” (J Med Chem, 1984).

The nature of experiment [1]: Concentration that produces 50 % displacement of specific [3H]clonidine binding to Alpha adrenergic receptor in rat brain cortical membrane preparations. It is filed as cell membranes.
Experiment [2] deals with D(2) dopamine receptor (Rattus norvegicus, UniProt P61169). Nature of the experiment: Concentration that produces 50 % displacement of specific [3H]spiroperidol binding to rat caudate membrane preparations.
D(2) dopamine receptor, sequence (P61169 whole entry): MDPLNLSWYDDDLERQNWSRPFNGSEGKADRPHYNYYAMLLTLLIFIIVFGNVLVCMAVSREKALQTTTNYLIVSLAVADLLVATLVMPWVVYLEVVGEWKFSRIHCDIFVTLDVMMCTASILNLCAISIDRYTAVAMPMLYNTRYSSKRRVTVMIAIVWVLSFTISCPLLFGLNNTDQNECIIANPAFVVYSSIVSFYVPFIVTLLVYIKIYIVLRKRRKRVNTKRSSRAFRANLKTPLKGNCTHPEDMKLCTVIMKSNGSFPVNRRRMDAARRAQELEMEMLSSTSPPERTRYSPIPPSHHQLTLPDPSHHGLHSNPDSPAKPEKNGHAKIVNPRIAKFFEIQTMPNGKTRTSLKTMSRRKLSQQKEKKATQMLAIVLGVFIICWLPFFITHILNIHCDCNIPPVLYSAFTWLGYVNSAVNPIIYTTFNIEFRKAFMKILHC
The target of experiment [3] is T1, cyclic AMP phosphoprotein (Rattus norvegicus, UniProt Q712U5).
T1 sequence (Q712U5 whole entry): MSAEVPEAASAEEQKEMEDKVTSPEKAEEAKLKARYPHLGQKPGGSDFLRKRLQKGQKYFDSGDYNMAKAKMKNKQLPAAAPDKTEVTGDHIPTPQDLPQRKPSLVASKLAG
Nature of the experiment: Effective concentration that gives maximal stimulation of cyclic AMP production over the concentration range tested; b=Inactive. It is filed as functional.

For the compound `CN1Cc2c(N)cccc2C(c2ccc(O)c(O)c2)C1` (stereo not drawn), the IC50 in experiment [1] amounted to 1390 nM; in experiment [2], 92 µM.
Regarding `CN1Cc2c(N)cccc2[C@H](c2ccc(O)c(O)c2)C1`, the IC50 in experiment [1] amounted to 600 nM; in experiment [2], 85.8 µM.
`CN1Cc2c(N)cccc2[C@@H](c2ccc(O)c(O)c2)C1`: the half-maximal inhibitory concentration (IC50) in experiment [1] amounted to 27700 nM; in experiment [2], 99.1 µM. Besides, the EC50 entry in experiment [3] is “Not Active”.
In turn, `NCCc1ccc(O)c(O)c1` [DOPAMINE] registered an IC50 in experiment [1] of 61 nM.
